Active and inactive are the calls of the source. The calls are words filed in the database; no cut-off is given here.
Assays:
[1] = biological target: CGRP receptor (CALCRL/RAMP1) (Homo sapiens); experiment: Displacement of [125I]CGRP from CGRP receptor in human SK-N-MC cells after 2 hrs by scintillation counter
[2] = Permeability of compound by PAMPA; format: ADME; conditions: read-out: permeability
[3] = Permeability of compound across apical to basolateral side in human Caco2 cells; format: ADME, cell-based; conditions: Caco-2, read-out: permeability
[4] = test system: CGRP receptor (CALCRL/RAMP1) (Homo sapiens); experiment: Antagonist activity at CGRP receptor (unknown origin)

Compound	IC50 [1] [nM]	Papp [2] [×10⁻⁶ cm/s]	Papp A→B [3] [×10⁻⁶ cm/s]	Activity [4]
Cc1cccc(C2CCN(C(=O)N[C@H](Cc3cc(C)c4[nH]ncc4c3)C(=O)N3CCC(N4CCCCC4)CC3)CC2)c1F	120	–	–	–
Cc1cc(C[C@@H](NC(=O)N2CCC(N3Cc4cccc(F)c4NC3=O)CC2)C(=O)N2CCC(N3CCCCC3)CC2)cc2cn[nH]c12	–	–	< 1.5	–
Cc1cc(C[C@@H](NC(=O)N2CCC(c3ccc(Cl)cc3)CC2)C(=O)N2CCC(N3CCCCC3)CC2)cc2cn[nH]c12	41	–	–	–
Cc1cc(C[C@@H](NC(=O)N2CCC(c3ccc4ccccc4c3)CC2)C(=O)N2CCC(N3CCCCC3)CC2)cc2cn[nH]c12	–	6.1	< 1.5	–
Cc1cc(C[C@@H](NC(=O)N2CCC(c3ccc(F)cc3F)CC2)C(=O)N2CCC(N3CCCCC3)CC2)cc2cn[nH]c12	92	–	–	–
Cc1cc(C[C@@H](NC(=O)N2CCC(c3cc4ccccc4cc3Cl)CC2)C(=O)N2CCC(N3CCCCC3)CC2)cc2cn[nH]c12	0.23	5.7	< 1.5	Active
Cc1cc(C[C@@H](NC(=O)N2CCC(c3ccc(C(F)(F)F)cc3C(F)(F)F)CC2)C(=O)N2CCC(N3CCCCC3)CC2)cc2cn[nH]c12	–	7.1	< 1.5	–
Cc1ccccc1C1CCN(C(=O)N[C@H](Cc2cc(C)c3[nH]ncc3c2)C(=O)N2CCC(N3CCCCC3)CC2)CC1	170	–	–	–
Cc1cc(C[C@@H](NC(=O)N2CCC(c3cc4ccccc4cc3C#N)CC2)C(=O)N2CCC(N3CCCCC3)CC2)cc2cn[nH]c12	0.11	–	–	–
Cc1cc(C[C@@H](NC(=O)N2CCC(c3ccc(Br)cc3)CC2)C(=O)N2CCC(N3CCCCC3)CC2)cc2cn[nH]c12	13	–	–	–
Cc1cc(C[C@@H](NC(=O)N2CCC(c3cccc4ccccc34)CC2)C(=O)N2CCC(N3CCCCC3)CC2)cc2cn[nH]c12	430	–	–	–
Cc1cc(C[C@@H](NC(=O)N2CCC(c3cccc(Br)c3)CC2)C(=O)N2CCC(N3CCCCC3)CC2)cc2cn[nH]c12	130	–	–	–
Cc1cc(C[C@@H](NC(=O)N2CCC(c3ccccc3)CC2)C(=O)N2CCC(N3CCCCC3)CC2)cc2cn[nH]c12	460	–	–	–
Cc1ccc(C2CCN(C(=O)N[C@H](Cc3cc(C)c4[nH]ncc4c3)C(=O)N3CCC(N4CCCCC4)CC3)CC2)cc1	240	–	–	–
Cc1cc(C[C@@H](NC(=O)N2CCC(c3ccccc3F)CC2)C(=O)N2CCC(N3CCCCC3)CC2)cc2cn[nH]c12	170	–	–	–

The remaining lines, values ahead:

IC50 [1] [nM]	Papp [2] [×10⁻⁶ cm/s]	Papp A→B [3] [×10⁻⁶ cm/s]	Activity [4]	Compound
12	–	–	–	Cc1cc(C[C@@H](NC(=O)N2CCN(c3ccc(Cl)c(Cl)c3)CC2)C(=O)N2CCC(N3CCCCC3)CC2)cc2cn[nH]c12
150	–	–	–	Cc1cc(C[C@@H](NC(=O)N2CCC(c3cccc(Cl)c3)CC2)C(=O)N2CCC(N3CCCCC3)CC2)cc2cn[nH]c12
16	12	< 1.5	Active	Cc1ccc(C2CCN(C(=O)N[C@H](Cc3cc(C)c4[nH]ncc4c3)C(=O)N3CCC(N4CCCCC4)CC3)CC2)c(Cl)c1
8.9	–	–	–	Cc1cc(C[C@@H](NC(=O)N2CCN(c3ccccc3C#N)CC2)C(=O)N2CCC(N3CCCCC3)CC2)cc2cn[nH]c12
34	–	–	–	Cc1cc(C[C@@H](NC(=O)N2CCN(c3ccc(S(C)(=O)=O)cc3F)CC2)C(=O)N2CCC(N3CCCCC3)CC2)cc2cn[nH]c12
1.1	2.4	< 1.5	Active	Cc1cc(C[C@@H](NC(=O)N2CCC(c3ccc(Cl)cc3Cl)CC2)C(=O)N2CCC(N3CCCCC3)CC2)cc2cn[nH]c12
77	–	–	–	Cc1cc(C[C@@H](NC(=O)N2CCN(c3ccc(Cl)cc3)CC2)C(=O)N2CCC(N3CCCCC3)CC2)cc2cn[nH]c12
99	–	–	–	Cc1cc(C[C@@H](NC(=O)N2CCN(c3ccc(C#N)cc3)CC2)C(=O)N2CCC(N3CCCCC3)CC2)cc2cn[nH]c12
33	5.2	< 1.5	Active	Cc1cc(C[C@@H](NC(=O)N2CCN(c3ccc(Br)cc3)CC2)C(=O)N2CCC(N3CCCCC3)CC2)cc2cn[nH]c12
4.3	17	< 1.5	Active	Cc1cc(C[C@@H](NC(=O)N2CCN(c3ccc(Cl)cc3Cl)CC2)C(=O)N2CCC(N3CCCCC3)CC2)cc2cn[nH]c12
46	–	–	–	Cc1cc(C[C@@H](NC(=O)N2CCN(c3ccc(-c4ccccc4)cc3)CC2)C(=O)N2CCC(N3CCCCC3)CC2)cc2cn[nH]c12
130	–	–	–	Cc1cc(C[C@@H](NC(=O)N2CCN(c3ccccc3F)CC2)C(=O)N2CCC(N3CCCCC3)CC2)cc2cn[nH]c12
9.8	–	–	–	Cc1cc(C[C@@H](NC(=O)N2CCC(c3ccccc3Cl)CC2)C(=O)N2CCC(N3CCCCC3)CC2)cc2cn[nH]c12
97	–	–	–	Cc1cc(C[C@@H](NC(=O)N2CCN(c3ccc(F)c(F)c3)CC2)C(=O)N2CCC(N3CCCCC3)CC2)cc2cn[nH]c12
44	–	–	–	Cc1cc(C[C@@H](NC(=O)N2CCN(c3ccccc3)CC2)C(=O)N2CCC(N3CCCCC3)CC2)cc2cn[nH]c12
12	3.5	5.6	Active	Cc1cc(C[C@@H](NC(=O)N2CCN(c3ccccc3Br)CC2)C(=O)N2CCC(N3CCCCC3)CC2)cc2cn[nH]c12
2.9	–	–	–	Cc1cc(C[C@@H](NC(=O)N2CCN(c3ccc(F)cc3S(C)(=O)=O)CC2)C(=O)N2CCC(N3CCCCC3)CC2)cc2cn[nH]c12
44	–	–	–	CCOC(=O)c1ccc(N2CCN(C(=O)N[C@H](Cc3cc(C)c4[nH]ncc4c3)C(=O)N3CCC(N4CCCCC4)CC3)CC2)cc1
19	5.2	–	Active	Cc1cc(C[C@@H](NC(=O)N2CCN(c3cccc(Cl)c3)CC2)C(=O)N2CCC(N3CCCCC3)CC2)cc2cn[nH]c12
110	–	–	–	COC(=O)c1ccccc1N1CCN(C(=O)N[C@H](Cc2cc(C)c3[nH]ncc3c2)C(=O)N2CCC(N3CCCCC3)CC2)CC1
7	–	–	–	Cc1cc(C[C@@H](NC(=O)N2CCN(c3ccc(S(C)(=O)=O)cc3Cl)CC2)C(=O)N2CCC(N3CCCCC3)CC2)cc2cn[nH]c12

— ChEMBL document CHEMBL3769346, “Synthesis and SAR of calcitonin gene-related peptide (CGRP) antagonists containing substituted aryl-piperazines and piperidines” (Bioorg Med Chem Lett, 2016)
